Measurements from US20250250252A1, “PIPERIDINYLBENZONITRILE DERIVATIVES AS INHIBITORS OF GLUTAMINYL-PEPTIDE CYCLOTRANSFERASE AND GLUTAMINYL-PEPTIDE CYCLOTRANSFERASE LIKE PROTEIN” (Boehringer Ingelheim International GmbH, priority 2024, published 2025).

system: SIRPα signalling induced by A549 cells; test: Assay B: SIRPα signalling assay using A549 cells; type: cell-based; details: Homo sapiens, read-out: Inhibition of SIRPα signalling induced by A549 cells: IC50
Procedure: Two cell types are independently used: the Raji cell line (lymphoblast-like human cell line derived from B lymphocytes from a Burkitt's lymphoma patient in 1963) and A549 cells (adenocarcinomic human alveolar basal epithelial cells).
Test compounds were dissolved in 100% DMSO and serially diluted into a white 384-well microtiter cell culture plate (PerkinElmer #60076780 in case of Raji assay; PDL-coated plates Greiner #781945 in case of A549 assay). 5000 Raji cells (ATCC #CC86) or 5000 A549 cells (ATCC #CCL-185) in Assay Complete Cell Plating reagent 30 (DiscoverX 93-0563R30B) were added per well. The assay plate was incubated for 48 h at 37° C., 95% humidity and 5% CO2. 15000 reporter cells (Jurkat PathHunter SIRPαV1, DiscoverX #93-1135C19) were added to each well, and the plate was incubated for 5 h at 37° C., 95% humidity and 5% CO2. Bioassay reagent 1 of the PathHunter Bioassay detection kit (DiscoverX 93-0001) was added to each well of the plate using a multichannel pipette followed by a 15 min incubation at room temperature. Afterwards bioassay reagent 2 was added followed by 60 min incubation at room temperature (incubation in the dark).
The analysis of the data was performed using the luminescence signal generated by betagalactosidase in the PathHunter reporter cell line. The luminescence measurement was done using a Pherastar Multi-Mode Reader. Dose-response curves & IC50 data were calculated with 4-parameter sigmoidal dose response formula.

SMILES | IC50 [nM]
Cn1cnnc1C1(F)CCN(c2c(C#N)cc(-c3ccnnc3)cc2-c2ccc(F)nc2)CC1 [Example 8] | 651
Cc1nn(C)cc1-c1cc(C#N)c(N2CCC(F)(c3nncn3C)CC2)c(-c2ccc(F)nc2)c1 [Example 4] | 26
Cc1nn(C)c(C)c1-c1cc(C#N)c(N2CCC(F)(c3nncn3C)CC2)c(-c2ccc(F)nc2)c1 [Example 3] | 45

molecular target: QPCTL (Homo sapiens (Human), UniProt Q9NXS2); test: Assay A: biochemical QPCTL activity assay (MALDI-TOF MS); details: read-out: Inhibition of QPCTL: IC50
Sequence (Q9NXS2 whole entry): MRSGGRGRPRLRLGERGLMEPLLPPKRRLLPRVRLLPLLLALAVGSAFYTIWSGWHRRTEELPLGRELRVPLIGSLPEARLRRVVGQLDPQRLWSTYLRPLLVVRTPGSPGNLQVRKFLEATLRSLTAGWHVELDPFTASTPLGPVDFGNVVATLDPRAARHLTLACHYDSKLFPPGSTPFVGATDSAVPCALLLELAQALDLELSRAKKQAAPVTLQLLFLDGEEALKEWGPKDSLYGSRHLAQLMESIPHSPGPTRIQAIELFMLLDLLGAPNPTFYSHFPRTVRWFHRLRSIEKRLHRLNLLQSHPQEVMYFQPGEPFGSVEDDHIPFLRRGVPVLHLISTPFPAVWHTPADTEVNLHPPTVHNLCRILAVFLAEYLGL
Procedure: (§1) QPCT or QPCTL dependent conversion of N-terminal glutamine to pyroglutamate of CD47 was monitored via MALDI-TOF MS. Test compounds were dissolved in 100% DMSO and serially diluted into clear 1,536-well microtiter plates. Enzymatic reactions were set up in assay buffer containing 20 mM Tris pH 7.5, 0.1 mM TCEP, 0.01% BSA, and 0.001% Tween20. […] The plates were incubated for 10 min in a humidified incubator at 24° C. Subsequently, 2.5 μL of CD47 peptide substrate surrogate (^19[…]^33) was added to each well (final concentration: 10 μM for QPCTL/20 μM for QPCT). The plates were mixed for 30 sec at 1,000 rpm and subsequently incubated for 40 min in a humidified incubator at 24° C. […] The plates were sealed with an adhesive foil, mixed for 30 s at 1,000 rpm and stored at room temperature until preparation of the MALDI target plates. […] QPCT or QPCTL activity was monitored by calculating the ratio between product and internal standard signals followed by normalization to high (100% activity) and low (0% activity) controls. Determination of compound potencies was obtained by fitting the dose-response data to a four-parameter logistical equation.

SMILES | IC50 [nM]
Cn1cnnc1C1(F)CCN(c2c(C#N)cc(-c3ccnnc3)cc2-c2ccc(F)nc2)CC1 [Example 8] | 2
Cc1nn(C)cc1-c1cc(C#N)c(N2CCC(F)(c3nncn3C)CC2)c(-c2ccc(F)nc2)c1 [Example 4] | 2
Cc1nn(C)c(C)c1-c1cc(C#N)c(N2CCC(F)(c3nncn3C)CC2)c(-c2ccc(F)nc2)c1 [Example 3] | 4

system: not listed separately; test: Assay C: Permeability in CACO-2 cells; type: in vitro ADME; details: human, Caco-2, pH 7.2; Assay C, permeability B-A/permeability A-B; read-out: Efflux Ratio
Procedure: Caco-2 cells (1-2×10^5 cells/1 cm^2 area) are seeded on filter inserts (Costar transwell polycarbonate or PET filters, 0.4 μm pore size) and cultured (DMEM) for 10 to 25 days. Compounds are dissolved in appropriate solvent (like DMSO, 1-20 mM stock solutions). […] The transport solution (TL) is applied to the apical or basolateral donor side for measuring A-B or B-A permeability (3 filter replicates), respectively. Samples are collected at the start and end of experiment from the donor and at various time intervals for up to 2 hours also from the receiver side for concentration measurement by HPLC-MS/MS or scintillation counting. Sampled receiver volumes are replaced with fresh receiver solution.
Efflux ratio (ER)=permeability B-A/permeability A-B

SMILES | efflux ratio
Cn1cnnc1C1(F)CCN(c2c(C#N)cc(-c3ccnnc3)cc2-c2ccc(F)nc2)CC1 [Example 8] | 20.3
Cc1nn(C)cc1-c1cc(C#N)c(N2CCC(F)(c3nncn3C)CC2)c(-c2ccc(F)nc2)c1 [Example 4] | 8.8
Cc1nn(C)c(C)c1-c1cc(C#N)c(N2CCC(F)(c3nncn3C)CC2)c(-c2ccc(F)nc2)c1 [Example 3] | 7.8

same assay, conditions: human, pH 7.2; Assay C, CACO-2 cells

SMILES | Papp A→B [×10⁻⁶ cm/s]
Cn1cnnc1C1(F)CCN(c2c(C#N)cc(-c3ccnnc3)cc2-c2ccc(F)nc2)CC1 [Example 8] | 0.7
Cc1nn(C)cc1-c1cc(C#N)c(N2CCC(F)(c3nncn3C)CC2)c(-c2ccc(F)nc2)c1 [Example 4] | 5
Cc1nn(C)c(C)c1-c1cc(C#N)c(N2CCC(F)(c3nncn3C)CC2)c(-c2ccc(F)nc2)c1 [Example 3] | 11

system: SIRPα signalling induced by Raji cells; test: Assay B: SIRPα signalling assay using Raji cells; type: cell-based; details: Homo sapiens, read-out: Inhibition of SIRPα signalling induced by Raji cells: IC50
Procedure: Bioassay reagent 1 of the PathHunter Bioassay detection kit (DiscoverX 93-0001) was added to each well of the plate using a multichannel pipette followed by a 15 min incubation at room temperature. Afterwards bioassay reagent 2 was added followed by 60 min incubation at room temperature (incubation in the dark).
The analysis of the data was performed using the luminescence signal generated by betagalactosidase in the PathHunter reporter cell line. The luminescence measurement was done using a Pherastar Multi-Mode Reader.

SMILES | IC50 [nM]
Cn1cnnc1C1(F)CCN(c2c(C#N)cc(-c3ccnnc3)cc2-c2ccc(F)nc2)CC1 [Example 8] | 267
Cc1nn(C)cc1-c1cc(C#N)c(N2CCC(F)(c3nncn3C)CC2)c(-c2ccc(F)nc2)c1 [Example 4] | 90
Cc1nn(C)c(C)c1-c1cc(C#N)c(N2CCC(F)(c3nncn3C)CC2)c(-c2ccc(F)nc2)c1 [Example 3] | 330

system: CYP3A4 mRNA; test: Assay D: CYP induction screening assay in primary human hepatocytes; type: in vitro ADME; details: 48 h
Procedure: Cryopreserved plateable human hepatocytes (single donor, BioIVT) were thawed and plated in Collagen-I coated 96-well-plates at a cell density of 0.07 million cells per well.
After a 6 h attachment period, the seeding medium was replaced by serum-free William's medium E supplemented with Matrigel (0.25 mg/ml) and allowed to recover overnight. 24 h post-seeding, serum-free Williams E medium containing the test compound at a final concentration of 10 μM and a final DMSO content of 0.1% and 0.1% DMSO (solvents treated control), respectively, was added to predefined wells. Exposure solutions were renewed after 24 h.
After 48 h of treatment in total, the effect of the test compounds on CYP3A4 mRNA expression was assessed using the QuantiGene Plex Gene Expression Assay. Hepatocytes were lysed and total RNA was extracted using the QuantiGene Sample Processing Kit according to the instructions of the manufacturer.
mRNA quantification was conducted using a customized QuantiGene Plex Panel to analyse CYP3A4 and the housekeeper genes RPL32, EIF4E2 and GUSB according to the instructions of the manufacturer and measured on a Luminex™ instrument. Signal was reported as median fluorescence intensity (MFI), which is proportional to the number of target RNA molecules present in the sample.
For calculation of CYP3A4 mRNA induction, the signal for CYP3A4 was normalized against the geometric mean of the signal obtained for the housekeeper genes for hepatocytes exposed to test compounds in relation to solvent-treated samples according to the following equation:
n-fold induction=(MFI CYP3A4 (treated)/Xgeo MFI (RPL32,EIF4E2,GUSB))/(MFI CYP3A4 (solvent control)/Xgeo MFI (RPL32,EIF4E2,GUSB))

SMILES | n-fold induction of CYP3A4 at 10 μM [n-fold]
Cn1cnnc1C1(F)CCN(c2c(C#N)cc(-c3ccnnc3)cc2-c2ccc(F)nc2)CC1 [Example 8] | 0.9
Cc1nn(C)cc1-c1cc(C#N)c(N2CCC(F)(c3nncn3C)CC2)c(-c2ccc(F)nc2)c1 [Example 4] | 2.0
Cc1nn(C)c(C)c1-c1cc(C#N)c(N2CCC(F)(c3nncn3C)CC2)c(-c2ccc(F)nc2)c1 [Example 3] | 1.7

system: murine hepatocytes; test: Assay E: Stability in murine hepatocytes; type: in vitro ADME, mouse; details: 1 μM
Procedure: The metabolic degradation of the test compound is assayed in a murine hepatocyte suspension.
Murine hepatocytes (typically cryopreserved) are incubated in an appropriate buffer system (e.g. Dulbecco's modified eagle medium plus 3.5 μg glucagon/500 mL, 2.5 mg insulin/500 mL and 3.75 mg/500 mL hydrocortison) containing 5% species serum.
Following a (typically) 30 min preincubation in an incubator (37° C., 10% CO2) 5 μl of test compound solution (80 μM; from 2 mM in DMSO stock solution diluted 1:25 with medium) are added into 395 μl hepatocyte suspension (cell density in the range 0.25-5 Mio cells/mL, typically 1 Mio cells/mL; final concentration of test compound 1 μM, final DMSO concentration 0.05%).
The cells are incubated for six hours (incubator, orbital shaker) and samples (2 μl) are taken at 0, 0.5, 1, 2, 4 and 6 hours. Samples are transferred into acetonitrile and pelleted by centrifugation (5 min). The supernatant is transferred to a new 96-deepwell plate, evaporated under nitrogen and resuspended.
CLint is calculated as follows CL_[…]=Dose/AUC=(C0/CD)/(AUD+clast/k)×1000/60. C0: initial concentration in the incubation [μM], CD: cell density of vital cells [10e6cells/mL], AUD: area under the data [μM×h], clast: concentration of last data point [μM], k: slope of the regression line for parent decline [h−1].
The calculated in vitro hepatic intrinsic clearance can be scaled up to the intrinsic in vivo hepatic Clearance and used to predict hepatic in vivo blood clearance (CL) by the use of a liver model (well stirred model).
CL_[…]_INVIVO[ml/min/kg]=(CL_[…][μL/min/10e6cells]×hepatocellularity[10e6cells/g liver]×liver factor[g/kg bodyweight])/1000
CL[ml/min/kg]=CL_[…]_INVIVO[ml/min/kg]×hepatic blood flow[ml/min/kg]/(CL_[…]_INVIVO[ml/min/kg]+hepatic blood flow[ml/min/kg])
Hepatocellularity,mouse:120×10e6cells/g liver
Liver factor,mouse:55 g/kg bodyweight
Blood flow,mouse:90 ml/(min×kg)

SMILES | Mouse Hepatocyte Stability QH [%]
Cn1cnnc1C1(F)CCN(c2c(C#N)cc(-c3ccnnc3)cc2-c2ccc(F)nc2)CC1 [Example 8] | 20
Cc1nn(C)cc1-c1cc(C#N)c(N2CCC(F)(c3nncn3C)CC2)c(-c2ccc(F)nc2)c1 [Example 4] | 21
Cc1nn(C)c(C)c1-c1cc(C#N)c(N2CCC(F)(c3nncn3C)CC2)c(-c2ccc(F)nc2)c1 [Example 3] | 25

molecular target: QPCT (Homo sapiens (Human), UniProt Q16769); test: Assay A: biochemical QPCT activity assay (MALDI-TOF MS); details: read-out: Inhibition of QPCT: IC50
Sequence (Q16769 29-361): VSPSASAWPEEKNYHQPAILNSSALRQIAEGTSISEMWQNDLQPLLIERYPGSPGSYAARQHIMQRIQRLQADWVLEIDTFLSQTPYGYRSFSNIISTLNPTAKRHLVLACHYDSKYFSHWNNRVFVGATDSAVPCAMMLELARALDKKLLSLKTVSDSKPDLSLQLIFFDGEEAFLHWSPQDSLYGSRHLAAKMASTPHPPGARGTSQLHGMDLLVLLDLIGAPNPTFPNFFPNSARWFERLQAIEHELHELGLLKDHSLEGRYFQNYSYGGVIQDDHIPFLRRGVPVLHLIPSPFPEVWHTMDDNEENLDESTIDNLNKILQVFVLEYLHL
Procedure: as §1

SMILES | IC50 [nM]
Cn1cnnc1C1(F)CCN(c2c(C#N)cc(-c3ccnnc3)cc2-c2ccc(F)nc2)CC1 [Example 8] | 3
Cc1nn(C)cc1-c1cc(C#N)c(N2CCC(F)(c3nncn3C)CC2)c(-c2ccc(F)nc2)c1 [Example 4] | 3
Cc1nn(C)c(C)c1-c1cc(C#N)c(N2CCC(F)(c3nncn3C)CC2)c(-c2ccc(F)nc2)c1 [Example 3] | 5
